Data taken from ChEMBL document CHEMBL1201862, “PubChem BioAssay data set” (2004).
Activity calls are given as the source filed them.

What was measured:
Exodeoxyribonuclease V = Exodeoxyribonuclease V (Escherichia coli (strain K12), UniProt P04993+P07648+P08394); assay: E. coli RecBCD inhibitors, dose response, counter-screen for AddAB inhibitor project, absorbance, V66 E. coli, mutant T4 phage (AID 492957); assay type: functional, cell-based, Escherichia coli str. K-12 substr. MG1655
[1] = Counterscreen for AddAB inhibitors: absorbance-based bacterial cell-based high throughput dose response assay for inhibitors of bacterial viability. [Related pubchem assays (depositor defined):AID435030, AID449728, AID449731, AID488942, AID488955, AID488956]; assay type: functional
[2] = cytotoxicity toward NIH3T3 fibroblasts, dose response, counter-screen, cell-based, ATP luminescence, mouse fibroblasts (AID 2010); assay type: functional;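 also: cells exposed to compound for about 90 hours before reading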
[3] = inhibitors of intracellular T. cruzi replication, confirmation, NIH3T3 host cells, beta-gal luminescence (AID 2044); assay type: functional, cell-based;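 also: intracellular parasites grown in NIH/3T3 mouse fibroblasts as host cells; luminescent beta-galactosidase reporter signal from transgenic T. cruzi replicating inside host cells; inhibitors lower the luminescence signal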
[4] = target: T1, Sentrin-specific protease 8 (Homo sapiens, UniProt Q96LD8); assay type: functional
T1 sequence (Q96LD8 whole entry): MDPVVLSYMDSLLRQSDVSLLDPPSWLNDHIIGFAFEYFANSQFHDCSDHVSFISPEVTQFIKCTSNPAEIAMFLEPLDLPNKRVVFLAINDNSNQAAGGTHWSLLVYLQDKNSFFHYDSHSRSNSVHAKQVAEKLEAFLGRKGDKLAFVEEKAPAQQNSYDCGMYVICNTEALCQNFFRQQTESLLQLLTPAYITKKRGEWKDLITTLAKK

[5] = target: T1, Sentrin-specific protease 8; assay type: functional; remark: listed apart in the source
[6] = target: G-protein coupled receptor 55 (Homo sapiens, UniProt Q9Y2T6); assay: GPR55 antagonists blocking LPI-driven arrestin recruitment, primary screen, imaging, U2OS, beta-arrestin-GFP, LPI agonist (AID 2013); assay type: functional;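 also: antagonist potency measured as reduced agonist-driven arrestin aggregation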
SUMO-activating enzyme [7] = target: T2, SUMO-activating enzyme (Homo sapiens, UniProt Q9UBT2); assay: inhibitors of in vitro SUMOylation cascade, primary screen, biochemical, HTRF, uHTS (AID 2006); assay type: protein-complex assay
SUMO-activating enzyme [8] = target: T2, SUMO-activating enzyme; assay: SUMOylation inhibitor hit validation, confirmation, SUMOylation inhibitor project, biochemical, AlphaScreen (AID 2018); assay type: functional
[9] = target: Eukaryotic translation initiation factor 4E (Mus musculus, UniProt P63073); assay: eIF4E–eIF4G protein interaction inhibitors, dose response, biochemical, TR-FRET (AID 855); assay type: functional;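 also: potency for disrupting eIF4E binding to eIF4GI seen as loss of FRET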
[10] = target: T3, Rac GTPase-activating protein 1 (Homo sapiens, UniProt Q9H0H5); assay: MgcRacGAP GTPase-activating activity inhibitors, confirmation, biochemical, ADP Hunter fluorescence, primary and confirmatory (AID 624330); assay type: functional
T3 sequence (Q9H0H5 whole entry): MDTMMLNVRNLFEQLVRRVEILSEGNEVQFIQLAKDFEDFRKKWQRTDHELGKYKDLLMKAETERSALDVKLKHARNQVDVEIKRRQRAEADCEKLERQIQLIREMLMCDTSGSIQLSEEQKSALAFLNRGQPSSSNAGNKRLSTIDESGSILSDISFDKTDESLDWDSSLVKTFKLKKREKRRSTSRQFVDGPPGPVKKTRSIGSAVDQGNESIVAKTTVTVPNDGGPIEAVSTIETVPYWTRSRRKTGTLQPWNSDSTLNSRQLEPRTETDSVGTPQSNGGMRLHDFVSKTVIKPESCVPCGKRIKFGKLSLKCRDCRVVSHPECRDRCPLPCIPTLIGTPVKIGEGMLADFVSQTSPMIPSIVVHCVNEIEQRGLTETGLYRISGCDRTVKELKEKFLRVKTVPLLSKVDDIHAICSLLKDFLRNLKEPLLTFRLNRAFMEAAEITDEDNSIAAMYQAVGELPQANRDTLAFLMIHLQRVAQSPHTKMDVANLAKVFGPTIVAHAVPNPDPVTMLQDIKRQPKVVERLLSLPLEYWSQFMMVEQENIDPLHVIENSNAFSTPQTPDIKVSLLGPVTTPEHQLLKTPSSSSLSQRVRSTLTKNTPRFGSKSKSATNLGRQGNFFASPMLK

[11] = inhibitors of Trypanosoma cruzi host-cell infection, confirmation, beta-gal luminescence, NIH3T3 host cells (AID 2630); assay type: functional, cell-based; details: Mus musculus
[12] = Luminescence Cell-Based/Microorganism Confirmation at Dose of Inhibitors of Trypanosoma cruzi Infection. [Related pubchem assays: 1885, 1968 ]; assay type: functional
[13] = Luminescence Cell-Based Secondary HTS screen to identify cytotoxic compounds of NIH3T3 cells. [Related pubchem assays: 1885, 1968 ]; assay type: functional
INS1 [14] = assay: beta cell apoptosis inhibitors, cytokine rescue, dose response, luminescence, retest (AID 449756); assay type: functional, cell-based; details: Rattus norvegicus;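 also: cell death triggered by IL-1 beta plus TNF-alpha plus IFN-gamma mixture; protective hits raise ATP signal compared with cytokine alone wells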
HEK293 = assay: inhibitors of LMP1-driven NF-kB reporter, dose response, cell-based, HEK293, luciferase, cherry-pick (AID 588343); assay type: functional; details: Homo sapiens
INS1 [15] = assay: protection of INS-1E cells from cytokine death, dose response, ATP luminescence, dry powder (AID 488844); assay type: functional, cell-based; details: Rattus norvegicus
Hexokinase HKDC1 = target: T4, Hexokinase HKDC1 (Homo sapiens, UniProt Q2TB90); assay: HKDC1 hexokinase inhibitors, dose response, biochemical, W721R variant (AID 504729); assay type: functional
T4 sequence (Q2TB90 whole entry): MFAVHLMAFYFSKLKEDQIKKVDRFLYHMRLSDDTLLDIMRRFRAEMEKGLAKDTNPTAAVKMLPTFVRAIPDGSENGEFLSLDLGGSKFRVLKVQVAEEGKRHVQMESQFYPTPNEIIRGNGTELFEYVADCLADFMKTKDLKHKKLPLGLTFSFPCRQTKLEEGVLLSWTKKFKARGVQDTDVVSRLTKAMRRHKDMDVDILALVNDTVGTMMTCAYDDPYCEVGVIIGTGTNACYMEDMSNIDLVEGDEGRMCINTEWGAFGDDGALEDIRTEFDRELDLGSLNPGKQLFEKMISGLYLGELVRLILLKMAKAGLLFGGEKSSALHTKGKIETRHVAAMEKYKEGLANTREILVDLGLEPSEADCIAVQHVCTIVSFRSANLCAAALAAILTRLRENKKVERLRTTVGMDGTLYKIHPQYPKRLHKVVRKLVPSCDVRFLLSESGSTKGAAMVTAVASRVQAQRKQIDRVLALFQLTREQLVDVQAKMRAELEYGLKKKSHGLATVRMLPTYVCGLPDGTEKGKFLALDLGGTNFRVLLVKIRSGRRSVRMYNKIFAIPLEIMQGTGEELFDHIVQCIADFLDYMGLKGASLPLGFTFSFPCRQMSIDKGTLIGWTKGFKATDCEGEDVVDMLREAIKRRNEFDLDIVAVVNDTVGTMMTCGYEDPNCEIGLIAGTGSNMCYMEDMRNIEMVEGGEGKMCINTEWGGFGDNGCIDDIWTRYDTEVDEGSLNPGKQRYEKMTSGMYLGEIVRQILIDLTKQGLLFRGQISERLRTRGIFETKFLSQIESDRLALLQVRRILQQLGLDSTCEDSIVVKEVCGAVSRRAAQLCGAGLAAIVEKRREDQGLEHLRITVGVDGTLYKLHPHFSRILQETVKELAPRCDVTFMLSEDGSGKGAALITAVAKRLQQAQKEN

[16] = inhibitors of SNCA 5'UTR-driven reporter translation, confirmation, H4 neuroglioma cells, luminescence (AID 1988); assay type: functional, cell-based
[17] = inhibitors of firefly luciferase expression or activity, dose response, H4 neuroglioma cells, luminescence (AID 1990); assay type: functional, cell-based
[18] = Luminescence Cell-Based Dose Response HTS to Identify Inhibitors of 5'UTR Stem-Loop Driven Prion Protein mRNA Translation in H4 Neuroglioblastoma Cells. [Related pubchem assays: 1827 (Project Summary), 1813 (Primary HTS)]; assay type: functional
Protein RecA = target: T5, Protein RecA (Mycobacterium tuberculosis, UniProt P9WHJ3); assay: Fluorescence Cell-Free Homogeneous Dose Retest to Identify Inhibitors of RecA-Intein Splicing Activity. [Related pubchem assays (depositor defined):AID2097, AID2223, AID489010, AID492950]; assay type: functional
T5 sequence (P9WHJ3 whole entry): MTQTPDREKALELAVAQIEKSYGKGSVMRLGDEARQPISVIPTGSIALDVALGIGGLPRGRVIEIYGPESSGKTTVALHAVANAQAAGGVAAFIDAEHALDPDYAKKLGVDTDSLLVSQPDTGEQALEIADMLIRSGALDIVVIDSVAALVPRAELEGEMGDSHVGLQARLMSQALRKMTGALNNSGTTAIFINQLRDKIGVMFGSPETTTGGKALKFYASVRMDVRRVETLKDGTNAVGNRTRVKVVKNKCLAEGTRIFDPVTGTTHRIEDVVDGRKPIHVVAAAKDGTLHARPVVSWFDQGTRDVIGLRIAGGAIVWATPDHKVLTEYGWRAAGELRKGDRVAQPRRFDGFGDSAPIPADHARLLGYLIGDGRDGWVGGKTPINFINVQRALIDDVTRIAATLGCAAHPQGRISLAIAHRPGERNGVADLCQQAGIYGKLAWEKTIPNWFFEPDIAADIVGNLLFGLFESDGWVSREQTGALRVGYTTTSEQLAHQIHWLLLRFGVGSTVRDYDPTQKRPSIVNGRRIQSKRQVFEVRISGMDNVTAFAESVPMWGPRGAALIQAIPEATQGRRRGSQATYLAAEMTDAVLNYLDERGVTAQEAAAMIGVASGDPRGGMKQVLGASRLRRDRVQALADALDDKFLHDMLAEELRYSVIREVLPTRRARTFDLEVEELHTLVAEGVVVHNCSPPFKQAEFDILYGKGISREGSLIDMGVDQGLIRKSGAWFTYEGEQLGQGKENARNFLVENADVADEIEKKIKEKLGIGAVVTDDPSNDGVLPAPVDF

[19] = target: T6, Replicative DNA helicase DnaB (Mycobacterium tuberculosis, UniProt P9WMR3); assay: DnaB intein splicing inhibitors, dose response, biochemical, cell-free fluorescence (AID 449749); assay type: functional
T6 sequence (P9WMR3 whole entry): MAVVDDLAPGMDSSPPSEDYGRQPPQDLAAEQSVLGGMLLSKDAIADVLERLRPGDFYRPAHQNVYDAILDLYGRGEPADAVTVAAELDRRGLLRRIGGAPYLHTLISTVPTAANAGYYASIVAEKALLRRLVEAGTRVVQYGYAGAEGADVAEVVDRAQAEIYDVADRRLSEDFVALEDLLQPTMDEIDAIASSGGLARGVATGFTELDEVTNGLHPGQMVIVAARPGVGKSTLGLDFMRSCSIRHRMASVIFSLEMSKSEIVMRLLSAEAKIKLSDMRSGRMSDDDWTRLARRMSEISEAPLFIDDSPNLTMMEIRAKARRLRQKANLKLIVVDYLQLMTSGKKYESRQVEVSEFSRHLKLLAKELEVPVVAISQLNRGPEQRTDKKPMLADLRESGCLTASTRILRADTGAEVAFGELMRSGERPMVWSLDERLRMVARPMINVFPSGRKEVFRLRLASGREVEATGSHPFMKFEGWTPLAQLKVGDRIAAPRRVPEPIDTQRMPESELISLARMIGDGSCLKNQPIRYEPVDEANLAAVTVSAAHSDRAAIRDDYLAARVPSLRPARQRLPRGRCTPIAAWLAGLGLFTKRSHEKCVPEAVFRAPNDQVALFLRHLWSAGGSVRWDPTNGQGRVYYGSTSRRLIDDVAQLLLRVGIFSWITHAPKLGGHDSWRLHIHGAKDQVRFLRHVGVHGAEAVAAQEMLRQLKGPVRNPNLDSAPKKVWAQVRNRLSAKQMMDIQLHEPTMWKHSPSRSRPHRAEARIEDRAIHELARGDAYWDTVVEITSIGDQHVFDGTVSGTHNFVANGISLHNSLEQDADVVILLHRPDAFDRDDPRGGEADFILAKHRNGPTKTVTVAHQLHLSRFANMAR

T2 sequence (Q9UBE0 whole entry): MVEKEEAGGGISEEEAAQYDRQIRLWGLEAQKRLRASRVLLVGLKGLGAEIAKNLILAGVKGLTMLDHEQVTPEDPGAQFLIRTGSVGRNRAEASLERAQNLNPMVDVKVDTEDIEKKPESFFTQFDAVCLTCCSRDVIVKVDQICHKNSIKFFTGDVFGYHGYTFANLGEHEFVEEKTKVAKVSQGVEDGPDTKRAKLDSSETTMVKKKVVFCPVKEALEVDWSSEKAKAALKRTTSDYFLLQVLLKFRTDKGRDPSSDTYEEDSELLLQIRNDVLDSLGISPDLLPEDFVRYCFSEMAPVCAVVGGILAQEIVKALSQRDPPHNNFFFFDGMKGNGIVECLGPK
T2 sequence (Q9UBT2 whole entry): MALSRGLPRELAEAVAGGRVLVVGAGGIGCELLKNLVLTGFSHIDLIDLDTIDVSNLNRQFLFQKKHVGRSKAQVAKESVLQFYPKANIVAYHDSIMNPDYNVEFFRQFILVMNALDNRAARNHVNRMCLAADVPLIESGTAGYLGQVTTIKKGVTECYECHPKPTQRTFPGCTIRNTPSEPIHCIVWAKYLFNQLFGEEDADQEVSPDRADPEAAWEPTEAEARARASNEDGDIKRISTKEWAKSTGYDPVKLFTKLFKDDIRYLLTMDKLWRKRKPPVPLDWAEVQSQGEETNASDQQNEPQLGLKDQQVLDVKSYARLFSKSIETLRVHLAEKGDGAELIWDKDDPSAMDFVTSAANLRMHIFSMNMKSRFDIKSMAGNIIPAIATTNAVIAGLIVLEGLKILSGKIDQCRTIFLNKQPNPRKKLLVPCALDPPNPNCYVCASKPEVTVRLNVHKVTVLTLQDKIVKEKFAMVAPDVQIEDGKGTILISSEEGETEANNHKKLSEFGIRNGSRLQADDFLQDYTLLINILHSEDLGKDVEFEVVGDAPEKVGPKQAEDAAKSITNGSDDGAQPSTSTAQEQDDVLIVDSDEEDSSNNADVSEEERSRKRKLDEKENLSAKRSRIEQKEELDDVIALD
Eukaryotic translation initiation factor 4E, sequence (P63073 whole entry): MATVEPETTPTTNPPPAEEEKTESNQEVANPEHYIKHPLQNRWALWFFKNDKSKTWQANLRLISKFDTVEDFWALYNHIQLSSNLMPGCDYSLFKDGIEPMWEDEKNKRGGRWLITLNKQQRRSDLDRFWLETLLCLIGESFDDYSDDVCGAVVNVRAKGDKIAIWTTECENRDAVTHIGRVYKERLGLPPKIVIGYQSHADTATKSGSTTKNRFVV
Exodeoxyribonuclease V, sequence (P04993 whole entry): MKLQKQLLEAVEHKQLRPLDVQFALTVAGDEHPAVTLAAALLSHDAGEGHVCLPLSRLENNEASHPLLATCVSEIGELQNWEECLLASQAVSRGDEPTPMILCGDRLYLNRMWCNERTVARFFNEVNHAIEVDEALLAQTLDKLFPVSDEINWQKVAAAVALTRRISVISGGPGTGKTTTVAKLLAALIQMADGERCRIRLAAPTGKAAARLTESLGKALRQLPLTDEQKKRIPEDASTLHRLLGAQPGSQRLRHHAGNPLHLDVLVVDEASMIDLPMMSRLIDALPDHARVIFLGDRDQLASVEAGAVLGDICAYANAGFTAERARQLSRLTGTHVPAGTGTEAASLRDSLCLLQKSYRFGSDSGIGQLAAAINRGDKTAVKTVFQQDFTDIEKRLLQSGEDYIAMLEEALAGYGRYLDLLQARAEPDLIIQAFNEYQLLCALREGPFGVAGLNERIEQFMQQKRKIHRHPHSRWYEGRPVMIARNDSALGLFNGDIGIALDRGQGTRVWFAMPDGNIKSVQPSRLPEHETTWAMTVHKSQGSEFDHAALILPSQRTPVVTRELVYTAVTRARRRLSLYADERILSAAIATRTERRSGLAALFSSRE
Exodeoxyribonuclease V, sequence (P07648 whole entry): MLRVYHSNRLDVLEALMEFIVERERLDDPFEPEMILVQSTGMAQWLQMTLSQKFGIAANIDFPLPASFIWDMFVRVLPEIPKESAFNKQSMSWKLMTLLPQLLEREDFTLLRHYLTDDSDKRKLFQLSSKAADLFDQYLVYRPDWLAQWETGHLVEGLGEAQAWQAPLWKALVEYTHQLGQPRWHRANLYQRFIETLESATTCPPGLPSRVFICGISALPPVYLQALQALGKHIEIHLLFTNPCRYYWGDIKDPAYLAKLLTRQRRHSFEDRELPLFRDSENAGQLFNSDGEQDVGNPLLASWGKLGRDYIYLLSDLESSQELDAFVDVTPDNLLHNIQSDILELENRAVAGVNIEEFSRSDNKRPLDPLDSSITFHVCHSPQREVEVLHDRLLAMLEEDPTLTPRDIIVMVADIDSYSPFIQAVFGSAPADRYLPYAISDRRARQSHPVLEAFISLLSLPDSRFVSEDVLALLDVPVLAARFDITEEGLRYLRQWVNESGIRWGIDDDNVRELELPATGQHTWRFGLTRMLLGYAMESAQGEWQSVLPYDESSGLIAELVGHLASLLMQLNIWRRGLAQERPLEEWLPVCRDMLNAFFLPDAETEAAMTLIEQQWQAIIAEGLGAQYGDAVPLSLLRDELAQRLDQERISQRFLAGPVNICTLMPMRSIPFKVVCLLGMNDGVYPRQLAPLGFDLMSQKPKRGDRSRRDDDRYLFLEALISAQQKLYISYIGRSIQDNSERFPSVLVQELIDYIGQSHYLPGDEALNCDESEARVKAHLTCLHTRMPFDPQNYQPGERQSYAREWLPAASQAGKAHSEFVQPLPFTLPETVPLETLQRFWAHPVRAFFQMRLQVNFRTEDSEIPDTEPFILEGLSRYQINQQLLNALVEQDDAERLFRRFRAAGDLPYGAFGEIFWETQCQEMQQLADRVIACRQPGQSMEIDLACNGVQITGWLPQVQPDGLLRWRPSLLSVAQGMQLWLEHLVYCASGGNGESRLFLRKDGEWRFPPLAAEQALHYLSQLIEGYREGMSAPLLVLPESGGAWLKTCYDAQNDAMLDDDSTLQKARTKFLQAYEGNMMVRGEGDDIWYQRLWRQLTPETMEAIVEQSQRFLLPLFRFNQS
Exodeoxyribonuclease V, sequence (P08394 whole entry): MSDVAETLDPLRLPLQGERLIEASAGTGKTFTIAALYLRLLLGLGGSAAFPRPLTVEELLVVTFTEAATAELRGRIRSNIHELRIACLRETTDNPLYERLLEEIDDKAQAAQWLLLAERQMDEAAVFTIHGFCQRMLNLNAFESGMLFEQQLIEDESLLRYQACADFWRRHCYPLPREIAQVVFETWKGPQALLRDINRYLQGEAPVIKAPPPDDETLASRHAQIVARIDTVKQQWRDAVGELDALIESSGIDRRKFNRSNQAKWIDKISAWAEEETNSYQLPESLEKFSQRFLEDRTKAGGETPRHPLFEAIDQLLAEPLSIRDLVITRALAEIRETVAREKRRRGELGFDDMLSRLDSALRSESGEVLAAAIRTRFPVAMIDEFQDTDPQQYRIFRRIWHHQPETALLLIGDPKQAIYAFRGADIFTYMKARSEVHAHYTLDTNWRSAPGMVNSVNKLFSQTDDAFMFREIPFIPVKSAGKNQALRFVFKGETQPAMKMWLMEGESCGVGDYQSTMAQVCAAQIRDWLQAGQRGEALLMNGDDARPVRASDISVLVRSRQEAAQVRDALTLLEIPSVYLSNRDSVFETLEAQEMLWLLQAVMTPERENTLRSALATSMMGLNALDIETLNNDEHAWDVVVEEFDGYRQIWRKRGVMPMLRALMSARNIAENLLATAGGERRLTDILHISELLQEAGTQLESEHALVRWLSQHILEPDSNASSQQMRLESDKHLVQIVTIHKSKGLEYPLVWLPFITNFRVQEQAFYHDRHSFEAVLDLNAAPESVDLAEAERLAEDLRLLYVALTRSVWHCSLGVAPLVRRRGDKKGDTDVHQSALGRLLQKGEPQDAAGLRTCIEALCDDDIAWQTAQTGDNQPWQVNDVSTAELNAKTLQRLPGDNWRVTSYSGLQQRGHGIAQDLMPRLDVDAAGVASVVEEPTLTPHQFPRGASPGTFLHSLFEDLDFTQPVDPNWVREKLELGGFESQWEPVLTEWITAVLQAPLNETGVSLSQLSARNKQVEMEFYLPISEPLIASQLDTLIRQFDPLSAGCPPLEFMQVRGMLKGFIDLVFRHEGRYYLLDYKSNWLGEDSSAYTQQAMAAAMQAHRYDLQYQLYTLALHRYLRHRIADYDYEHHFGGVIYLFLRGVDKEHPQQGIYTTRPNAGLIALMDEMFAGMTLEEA
G-protein coupled receptor 55, sequence (Q9Y2T6 whole entry): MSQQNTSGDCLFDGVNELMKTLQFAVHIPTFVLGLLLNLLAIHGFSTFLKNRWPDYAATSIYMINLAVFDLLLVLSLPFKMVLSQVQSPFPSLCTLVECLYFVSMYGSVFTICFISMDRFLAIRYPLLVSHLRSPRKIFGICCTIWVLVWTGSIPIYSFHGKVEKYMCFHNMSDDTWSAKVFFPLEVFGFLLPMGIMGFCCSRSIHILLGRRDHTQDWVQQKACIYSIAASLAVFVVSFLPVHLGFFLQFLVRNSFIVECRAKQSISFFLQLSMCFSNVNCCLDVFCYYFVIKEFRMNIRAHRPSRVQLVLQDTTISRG

O=C(CCN1CCN(c2ccccc2)CC1)N/N=C/c1ccc([N+](=O)[O-])o1
IC50 (Exodeoxyribonuclease V): > 119 µM (inactive)
IC50 [1]: > 39.5 µM (inactive)
EC50 [2]: > 60 µM (not active)
EC50 [3]: < 0.1 µM (active)
IC50 [4]: 40 µM (active)
EC50 (cells): 0.037 µM (active)
IC50 [5]: 96.9 µM (inactive)

O=C(O)c1cccc(N2C(=O)/C(=C/c3ccc(SCc4ccc(Cl)cc4)o3)SC2=S)c1
IC50 [6]: 4.43 µM (active)
IC50 (SUMO-activating enzyme [7]): 14.6 µM (active)
IC50 (SUMO-activating enzyme [8]): 1.39 µM (active)
IC50 [9]: 29.9 µM (active)
IC50 [10]: 132 µM (active)

CSc1ccc(CN2CCCC(CNC(=O)c3ccc(F)cc3)C2)cc1 (configuration not stated)
EC50 [11]: 7.17 µM (active)
EC50 [12]: 7.17 µM (active)
EC50 [13]: > 195 µM (not active)
EC50 [2]: > 30 µM (not active)
EC50 [3]: < 0.1 µM (active)
EC50 (cells): 0.12 µM (active)

CCC(=O)NC(c1ccc(C)cc1)c1cc(Cl)c2cccnc2c1O (configuration not stated)
IC50 (Exodeoxyribonuclease V): > 119 µM (inactive)
AC50 (INS1 [14]): 1.65 µM (active)
IC50 [1]: > 119 µM (inactive)
AC50 (HEK293): 12.9 µM (active)

O=C(Cc1cn(Cc2cccc(Cl)c2)c2ccccc12)N1CCCCCC1
EC50 [11]: 3.09 µM (active)
EC50 [12]: 3.09 µM (active)
EC50 [13]: > 195 µM (not active)
EC50 [2]: > 60 µM (not active)
EC50 [3]: 1.75 µM (active)

C[C@@H]1CN([C@@H](C)CO)C(=O)c2cccc(NC(=O)Nc3ccccc3)c2O[C@H]1CN(C)S(=O)(=O)c1ccc(Cl)cc1
AC50 (INS1 [15]): 116 µM (active)

CCCCC[C@H](O)/C=C/[C@@H]1[C@@H](C/C=C\CCCC(=O)OC)[C@@H](O)C[C@H]1O
IC50 (Hexokinase HKDC1): 9.12 µM (active)
EC50 [16]: > 120 µM (not active)
EC50 [17]: > 120 µM (not active)
IC50 (SUMO-activating enzyme [7]): 18.4 µM (active)
EC50 [18]: > 120 µM (not active)
IC50 (SUMO-activating enzyme [8]): 10.5 µM (active)
IC50 [9]: 8.7 µM (active)
EC50 (Protein RecA): 12.2 µM (active)
AC50 [19]: 16.1 µM (active)
